Type in all cases: cell-based
For one assay, the target named is T1, human P2X2/3 receptors (Homo sapiens, UniProt P56373+Q9UBL9).
T1 construct: expressed in transfected cells; host or cells: human astrocytoma 1321N1 (1312N1 [sic])
T1 sequence (P56373 1-397): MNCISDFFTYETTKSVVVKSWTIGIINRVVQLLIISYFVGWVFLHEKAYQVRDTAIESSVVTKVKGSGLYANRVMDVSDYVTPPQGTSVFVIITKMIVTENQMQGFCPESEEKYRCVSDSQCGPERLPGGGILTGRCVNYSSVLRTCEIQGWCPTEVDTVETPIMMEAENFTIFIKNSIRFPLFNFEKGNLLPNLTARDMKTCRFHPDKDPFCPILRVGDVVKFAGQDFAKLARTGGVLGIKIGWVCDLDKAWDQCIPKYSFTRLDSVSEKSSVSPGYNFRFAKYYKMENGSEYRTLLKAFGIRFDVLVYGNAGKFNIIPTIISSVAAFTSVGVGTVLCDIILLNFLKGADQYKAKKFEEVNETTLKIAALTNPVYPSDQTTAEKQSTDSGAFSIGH
T1 sequence (Q9UBL9 1-471): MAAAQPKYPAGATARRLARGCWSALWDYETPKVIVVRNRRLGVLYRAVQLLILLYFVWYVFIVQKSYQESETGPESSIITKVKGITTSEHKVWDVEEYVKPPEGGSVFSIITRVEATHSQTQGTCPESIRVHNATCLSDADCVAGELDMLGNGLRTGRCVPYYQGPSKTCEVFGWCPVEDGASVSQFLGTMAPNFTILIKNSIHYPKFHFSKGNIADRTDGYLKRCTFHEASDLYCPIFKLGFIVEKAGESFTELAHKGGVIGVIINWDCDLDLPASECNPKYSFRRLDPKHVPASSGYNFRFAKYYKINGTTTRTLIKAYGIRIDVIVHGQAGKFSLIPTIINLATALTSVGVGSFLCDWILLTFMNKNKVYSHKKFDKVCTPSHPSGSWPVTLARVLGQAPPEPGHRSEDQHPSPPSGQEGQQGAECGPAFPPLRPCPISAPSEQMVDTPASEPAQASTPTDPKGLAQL
Kind of assay: Intracellular calcium measurement, antagonist activity at human P2X2/3 receptors (hP2X23 1321N1), Fluo8. The note with it: for IC50: column 4); 1321N1 cells, human P2X2/3, Fluo8, agonist ATP at EC50; read-out: 4) hP2X2/3 IC50 [nM] (1321N1); for hP2X23/hP2X3* Selectivity (1321N1): ratio of column 4) hP2X2/3 to column 3) hP2X3, 1321N1. An outline of the steps:
(§1)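 Antagonism was assessed by decrease of the Fluo8 calcium signal after ATP challenge, with ATP dosed at the EC50 of whichever receptor was tested. Stable 1321N1 astrocytoma lines expressed either human P2X3 or both P2X2 and P2X3, and were dye-loaded 60 min before a 10 min compound incubation.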
Background: Calcium flux is commonly read through the fluorescence of an indicator in the cells.

Assay [1] addresses T2, human P2X3 receptor (Homo sapiens, UniProt P56373).
T2 sequence (P56373 1-397): T1 sequence (P56373 1-397)
Kind of assay: Intracellular calcium measurement, antagonist activity at human P2X3 receptors (hP2X3 1321N1), Fluo8. On the set-up: expressed in transfected cells; host or cells: human astrocytoma 1321N1 (1312N1 [sic]). The note with it: column 3); 1321N1 cells, human P2X3, Fluo8, agonist ATP at EC50. An outline of the steps:
as §1

Assay [2] addresses T2, human P2X3 receptor. The assay can be described thus: Intracellular calcium measurement to assess antagonist activity at human P2X3 receptors (hP2X3 CHO), photina luminescence. The note with it: column 2), CHO cells, agonist α,β-methylene-ATP at EC50. On the set-up: expressed in transfected cells; host or cells: Chinese hamster ovary (CHO) cells. An outline of the steps:
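Antagonism read as lowered photina luminescence after agonist stimulation in recombinant hP2X3/photina CHO cells. Cells seeded one day earlier (30 °C) and reconstituted with 5 μg/ml coelenterazine in 2 mM Ca-tyrode buffer for 3 h at 37 °C before measurement.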

In the case of `O=C(Cn1c2c(c(=O)n3nc(C4CC4)cc13)CN(CCN1CCOCC1)C2=O)Nc1ccc(F)cn1` [Example 104], the IC50 at human P2X2/3 receptors is above 32000 nM; on human P2X3 receptor [1], 120 nM; at human P2X3 receptor [2], 69 nM. The “hP2X23/hP2X3* Selectivity (1321N1)” value on human P2X2/3 receptors was above 267.
Regarding `O=C(Cn1c2c(c(=O)n3nc(Cl)cc13)CN(CCN1CCOCC1)C2=O)Nc1ccc(F)cn1` [Example 105], the figures for the IC50 at human P2X2/3 receptors, at human P2X3 receptor [1] and at human P2X3 receptor [2] were above 32000 nM, 92 nM and 78 nM, respectively. For the same molecule, the “hP2X23/hP2X3* Selectivity (1321N1)” value at human P2X2/3 receptors is above 348.
The corresponding values for `CCc1cc2n(CC(=O)Nc3ccc(F)cn3)c3c(c(=O)n2n1)CN(Cc1ccncc1)C3=O` [Example 106] are 10500 nM, 46 nM, 69 nM and 227.
Consider `CCc1cc2n(CC(=O)Nc3ccc(F)cn3)c3c(c(=O)n2n1)CN(Cc1cccnc1)C3=O` [Example 107], for which the results for the IC50 at human P2X2/3 receptors, at human P2X3 receptor [1] and on human P2X3 receptor [2] were 5000 nM, 17 nM and 18 nM, respectively. In addition, the “hP2X23/hP2X3* Selectivity (1321N1)” value on human P2X2/3 receptors is recorded as 294.
Take `CCc1cc2n(CC(=O)Nc3ccc(F)cn3)c3c(c(=O)n2n1)CN(Cc1ccccn1)C3=O` [Example 108]: the IC50 on human P2X2/3 receptors was 3200 nM; at human P2X3 receptor [1], 16 nM; on human P2X3 receptor [2] it was 18 nM. The “hP2X23/hP2X3* Selectivity (1321N1)” value at human P2X2/3 receptors is 200.
On to `CCc1cc2n(CC(=O)Nc3ccc(F)cn3)c3c(c(=O)n2n1)CN(CCCOC)C3=O` [Example 109], for which the IC50 on human P2X2/3 receptors was above 32000 nM; on human P2X3 receptor [1] it was 280 nM; on human P2X3 receptor [2], 133 nM. Also, the “hP2X23/hP2X3* Selectivity (1321N1)” value at human P2X2/3 receptors is above 114.
The corresponding values for `COC[C@H](C)N1Cc2c(n(CC(=O)Nc3ccc(F)cn3)c3cc(C4CCC4)nn3c2=O)C1=O` [Example 110] are 3050 nM, 12 nM, 7 nM and 254.
Turning to `CCc1cc2n(CC(=O)Nc3ccc(F)cn3)c3c(c(=O)n2n1)CN(Cc1ccc(F)cc1)C3=O` [Example 112], the IC50 came to 2550 nM at human P2X2/3 receptors, 11 nM at human P2X3 receptor [1] and 17 nM at human P2X3 receptor [2]. In addition, the “hP2X23/hP2X3* Selectivity (1321N1)” value on human P2X2/3 receptors came out at 232.
`CC(C)N1Cc2c(n(CC(=O)Nc3ccc(F)cn3)c3cc(C4=CCN(C(=O)OC(C)(C)C)C4)nn3c2=O)C1=O` [Example 142, tert-butyl 3-[4-{2-[(5-fluoropyridin-2-yl)amino]-2-oxoethyl}-5,8-dioxo-6-(propan-2-yl)-5,6,7,8-tetrahydro-4H-pyrazolo[1,5-a]pyrrolo[3,4-d]pyrimidin-2-yl]-2,5-dihydro-1H-pyrrole-1-carboxylate]: the results for the IC50 on human P2X2/3 receptors, on human P2X3 receptor [1] and at human P2X3 receptor [2] were 1140 nM, 7 nM and 11 nM, respectively. Besides, the “hP2X23/hP2X3* Selectivity (1321N1)” value on human P2X2/3 receptors is 165.
The corresponding values for `CC(C)N1Cc2c(n(CC(=O)Nc3ccc(F)cn3)c3cc(C4=CCN(C(=O)OC(C)(C)C)CC4)nn3c2=O)C1=O` [Example 143, tert-butyl 4-[4-{2-[(5-fluoropyridin-2-yl)amino]-2-oxoethyl}-5,8-dioxo-6-(propan-2-yl)-5,6,7,8-tetrahydro-4H-pyrazolo[1,5-a]pyrrolo[3,4-d]pyrimidin-2-yl]-3,6-dihydropyridine-1(2H)-carboxylate] are 6600 nM, 34 nM, 20 nM and 197.
`CC(C)N1Cc2c(n(CC(=O)Nc3ccc(F)cn3)c3cc(C#N)nn3c2=O)C1=O` [Example 146, 2-[2-cyano-5,8-dioxo-6-(propan-2-yl)-5,6,7,8-tetrahydro-4H-pyrazolo[1,5-a]pyrrolo[3,4-d]pyrimidin-4-yl]-N-(5-fluoropyridin-2-yl)acetamide]: the IC50 on human P2X2/3 receptors came to 6950 nM; on human P2X3 receptor [1] it was 124 nM; on human P2X3 receptor [2], 97 nM. Moreover, the “hP2X23/hP2X3* Selectivity (1321N1)” value at human P2X2/3 receptors amounted to 56.
In the case of `CC(C)N1Cc2c(n(CC(=O)Nc3ccc(F)cn3)c3cc(-c4ccncc4)nn3c2=O)C1=O` [Example 149, 2-[5,8-dioxo-6-(propan-2-yl)-2-(pyridin-4-yl)-5,6,7,8-tetrahydro-4H-pyrazolo[1,5-a]pyrrolo[3,4-d]pyrimidin-4-yl]-N-(5-fluoropyridin-2-yl)acetamide], the IC50 worked out at 2110 nM at human P2X2/3 receptors, 13 nM at human P2X3 receptor [1] and 11 nM at human P2X3 receptor [2]. Moreover, at human P2X2/3 receptors, the “hP2X23/hP2X3* Selectivity (1321N1)” value was determined as 169.
The like results for `CC(C)N1Cc2c(n(CC(=O)Nc3ccc(F)cn3)c3cc(-c4ccccc4)nn3c2=O)C1=O` [Example 150, 2-[5,8-dioxo-2-phenyl-6-(propan-2-yl)-5,6,7,8-tetrahydro-4H-pyrazolo[1,5-a]pyrrolo[3,4-d]pyrimidin-4-yl]-N-(5-fluoropyridin-2-yl)acetamide] were, in that order, 2250 nM, 16 nM, 12 nM and 139.
Consider `COC[C@H](C)N1Cc2c(n(CC(=O)Nc3ccc(F)cn3)c3cc(-c4ccc(C)nc4)nn3c2=O)C1=O` [Example 151, N-(5-fluoropyridin-2-yl)-2-{6-[(2S)-1-methoxypropan-2-yl]-2-(6-methylpyridin-3-yl)-5,8-dioxo-5,6,7,8-tetrahydro-4H-pyrazolo[1,5-a]pyrrolo[3,4-d]pyrimidin-4-yl}acetamide], for which the IC50 at human P2X2/3 receptors amounted to 580 nM; on human P2X3 receptor [1] it was 5 nM; at human P2X3 receptor [2] it was 6 nM. The “hP2X23/hP2X3* Selectivity (1321N1)” value at human P2X2/3 receptors amounted to 106.
The corresponding values for `COC[C@H](C)N1Cc2c(n(CC(=O)Nc3ccc(F)cn3)c3cc(-c4ccncc4C)nn3c2=O)C1=O` [Example 152, N-(5-fluoropyridin-2-yl)-2-{6-[(2S)-1-methoxypropan-2-yl]-2-(3-methylpyridin-4-yl)-5,8-dioxo-5,6,7,8-tetrahydro-4H-pyrazolo[1,5-a]pyrrolo[3,4-d]pyrimidin-4-yl}acetamide] are 1460 nM, 4 nM, 9 nM and 328.
The like results for `COC[C@H](C)N1Cc2c(n(CC(=O)Nc3ccc(F)cn3)c3cc(-c4ccnc(C)c4)nn3c2=O)C1=O` [Example 153] were, in that order, 2350 nM, 6 nM, 10 nM and 408.
As to `Cc1ccc(-c2cc3n(CC(=O)Nc4ccc(F)cn4)c4c(c(=O)n3n2)CN(C(C)C)C4=O)cn1` [Example 154], the IC50 on human P2X2/3 receptors was 765 nM; on human P2X3 receptor [1], 8 nM; on human P2X3 receptor [2], 21 nM. Moreover, the “hP2X23/hP2X3* Selectivity (1321N1)” value on human P2X2/3 receptors amounted to 96.
For the molecule `Cc1cc(C)c(-c2cc3n(CC(=O)Nc4ccc(F)cn4)c4c(c(=O)n3n2)CN(C(C)C)C4=O)cn1` [Example 156], the IC50 was 295 nM at human P2X2/3 receptors, 4 nM at human P2X3 receptor [1] and 12 nM on human P2X3 receptor [2]. The “hP2X23/hP2X3* Selectivity (1321N1)” value at human P2X2/3 receptors is reported as 78.
With `Cc1ccc(-c2cc3n(CC(=O)Nc4ccc(F)cn4)c4c(c(=O)n3n2)CN(C(C)C)C4=O)c(C)n1` [Example 157], the IC50 is above 32000 nM on human P2X2/3 receptors, 54 nM on human P2X3 receptor [1] and 26 nM at human P2X3 receptor [2]. For the same molecule, the “hP2X23/hP2X3* Selectivity (1321N1)” value at human P2X2/3 receptors was above 593.
The corresponding values for `COC[C@H](C)N1Cc2c(n(CC(=O)Nc3ccc(F)cn3)c3cc(-c4cc(C)ncc4C)nn3c2=O)C1=O` [Example 158] are 1400 nM, 3 nM, 10 nM and 424.
For `Cc1cc(-c2cc3n(CC(=O)Nc4ccc(F)cn4)c4c(c(=O)n3n2)CN(C(C)C)C4=O)c(C)cn1` [Example 159], the values for the IC50 at human P2X2/3 receptors, at human P2X3 receptor [1] and on human P2X3 receptor [2] were 1800 nM, 3 nM and 13 nM, respectively. Further, the “hP2X23/hP2X3* Selectivity (1321N1)” value at human P2X2/3 receptors is 581.

The values above are taken from patent publication US11319324B2, “Pyrazolo-pyrrolo-pyrimidine-dione derivatives as P2X3 inhibitors” (Bayer Aktiengesellschaft, priority 2017, dated 2022).
